Data on 5 molecules can be found in patent US6344484B1, “Tyrosine alkoxyguanidines as integrin inhibitors” (3-Dimensional Pharmaceuticals, Inc., priority 1999, dated 2002).

One test concerns the target T1, human αvβ3 (Homo sapiens, UniProt P05106+P06756).
T1 construct: purchased Chemicon CC10118
Kind of test: αvβ3-vitronectin assay (ELISA, inhibition of αvβ3-vitronectin interaction). It is filed as binding. As for the experimental part: The assay was based on the method of Niiya (Niiya, K., et al., Blood 70:475-483 (1987)). Costar 9018 flat-bottom 96-well ELISA plates were coated overnight at 4° C. with 100 μL/well of 0.4 μg/mL human αvβ3 (Chemicon CC10118) in TS buffer (20 mM Tris-HCl pH 7.5, 150 mM NaCl, 1 mM CaCl2, 1 mM MgCl2, 1 mM MnCl2). All subsequent steps were performed at room temperature. Plates were blocked for 2 hr with 200 μL/well of TS buffer containing 1% BSA (TSB buffer), and washed 5 times with 200 μL/well of TS buffer. Controls or test compound (0.44-455 nM) were mixed with 1 μg/mL of human vitronectin (Chemicon CC1019) that had been biotinylated in-house with sulfo-NHS-LC-LC-biotin (Pierce 21338, 20:1 molar ratio), and 100 μL/well of these solutions (in TSB buffer) were incubated for 2 hr. The plate was then washed 5 times with TS buffer, and 100 μL/well of 1 μ/mL NeutrAvidin-horseradish peroxidase conjugate (Pierce 31001) in TSB buffer was incubated for 1 hr. Following a 5-fold TS buffer wash, the plate was developed and results were calculated as described for the fibrinogen-IIbIIIa assay.

A further test deals with T2, human GPIIbIIIa (Homo sapiens, UniProt P05106+P08514).
T2 construct: purchased Enzyme Research Laboratories
Kind of test: Fibrinogen-IIb-IIIa assay (ELISA, inhibition of fibrinogen-GPIIbIIIa interaction). It is filed as binding. The settings on record: mean of three replicate determinations; FIG. 1. The method, then: Fibrinogen-IIb-IIIa assay
The assay is based on the method of Dennis (Dennis, M. S., et al, Proteins 15: 312-321 (1993)). Costar 9018 flat-bottom 96-well ELISA plates were coated overnight at 4° C. with 100 μL/well of 10 μg/mL human fibrinogen (Calbiochem 341578) in 20 mM Tris-HCl pH 7.5, 150 mM NaCl, 2 mM CaCl2, 0.02% NaN3 (TAC buffer), and blocked for 1 hr at 37° C. with 150 μL/well of TAC buffer containing 0.05% Tween 20 and 1% bovine serum albumin (TACTB buffer). After washing 3 times with 200 μL/well of 10 mM Na2HPO4 pH 7.5, 150 mM NaCl, 0.01% Tween 20 (PBST buffer), controls or test compound (0.036-18.2 μM) were mixed with 40 μg/mL human GPIIbIIIa (Enzyme Research Laboratories) in TACTB buffer, and 100 μL/well of these solutions were incubated for 2 hr at 37° C. The plate was then washed 3 times with PBST buffer, and 100 μL/well of a monoclonal anti-GPIIbIIIa antibody in TACTB buffer (1 μg/mL, Enzyme Research Laboratories MabGP2b3a) was incubated at 37° C. for 1 hr. […] The reaction was stopped with 50 μL/well of 2M H2SO4, and the absorbence at 492 nm was recorded. Percent (%) inhibition was calculated from the average of three separate determinations relative to buffer controls (no test compound added), and a four parameter fit (Marquardt, D. W., J. Soc. Indust. Appl. Math. 11:431-441 (1963)) was used to estimate the half maximal inhibition concentration (IC50).

The mark [1] stands for this setting: Table I, read-out: αvβ3 IC50 (nM), inhibition of the αvβ3-vitronectin interaction.

Structures can show the parent of a compound that is named as a salt. Where two headings read alike, the source gives them in different places.

T1 sequence (P06756 31-889 limits assumed): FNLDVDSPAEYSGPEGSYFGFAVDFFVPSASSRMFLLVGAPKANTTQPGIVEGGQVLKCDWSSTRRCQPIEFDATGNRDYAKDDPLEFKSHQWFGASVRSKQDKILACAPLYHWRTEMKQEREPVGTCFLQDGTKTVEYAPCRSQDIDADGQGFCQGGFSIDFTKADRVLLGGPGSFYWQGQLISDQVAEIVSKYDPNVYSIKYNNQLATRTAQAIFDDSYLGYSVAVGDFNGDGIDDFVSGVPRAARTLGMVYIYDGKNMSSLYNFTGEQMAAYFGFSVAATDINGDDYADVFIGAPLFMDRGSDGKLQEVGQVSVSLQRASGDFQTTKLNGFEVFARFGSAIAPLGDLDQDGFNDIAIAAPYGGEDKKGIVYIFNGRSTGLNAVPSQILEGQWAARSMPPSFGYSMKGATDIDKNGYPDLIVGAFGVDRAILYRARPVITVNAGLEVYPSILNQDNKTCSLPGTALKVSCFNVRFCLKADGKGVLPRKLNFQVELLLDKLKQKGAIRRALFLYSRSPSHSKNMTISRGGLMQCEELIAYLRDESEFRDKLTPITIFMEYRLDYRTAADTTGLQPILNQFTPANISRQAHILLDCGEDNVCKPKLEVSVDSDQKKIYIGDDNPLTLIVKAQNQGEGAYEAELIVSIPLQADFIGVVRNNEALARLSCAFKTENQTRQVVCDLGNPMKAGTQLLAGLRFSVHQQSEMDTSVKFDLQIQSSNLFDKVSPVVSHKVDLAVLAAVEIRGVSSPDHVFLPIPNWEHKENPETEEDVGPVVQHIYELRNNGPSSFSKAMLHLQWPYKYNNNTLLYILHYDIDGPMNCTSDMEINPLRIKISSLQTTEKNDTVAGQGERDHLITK
T1 sequence (P06756 891-1048 partner limits assumed): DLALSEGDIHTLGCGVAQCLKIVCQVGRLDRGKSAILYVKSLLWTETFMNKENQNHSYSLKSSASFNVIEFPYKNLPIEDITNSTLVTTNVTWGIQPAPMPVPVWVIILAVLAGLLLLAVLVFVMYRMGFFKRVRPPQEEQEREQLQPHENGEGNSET
T1 sequence (P05106 27-788): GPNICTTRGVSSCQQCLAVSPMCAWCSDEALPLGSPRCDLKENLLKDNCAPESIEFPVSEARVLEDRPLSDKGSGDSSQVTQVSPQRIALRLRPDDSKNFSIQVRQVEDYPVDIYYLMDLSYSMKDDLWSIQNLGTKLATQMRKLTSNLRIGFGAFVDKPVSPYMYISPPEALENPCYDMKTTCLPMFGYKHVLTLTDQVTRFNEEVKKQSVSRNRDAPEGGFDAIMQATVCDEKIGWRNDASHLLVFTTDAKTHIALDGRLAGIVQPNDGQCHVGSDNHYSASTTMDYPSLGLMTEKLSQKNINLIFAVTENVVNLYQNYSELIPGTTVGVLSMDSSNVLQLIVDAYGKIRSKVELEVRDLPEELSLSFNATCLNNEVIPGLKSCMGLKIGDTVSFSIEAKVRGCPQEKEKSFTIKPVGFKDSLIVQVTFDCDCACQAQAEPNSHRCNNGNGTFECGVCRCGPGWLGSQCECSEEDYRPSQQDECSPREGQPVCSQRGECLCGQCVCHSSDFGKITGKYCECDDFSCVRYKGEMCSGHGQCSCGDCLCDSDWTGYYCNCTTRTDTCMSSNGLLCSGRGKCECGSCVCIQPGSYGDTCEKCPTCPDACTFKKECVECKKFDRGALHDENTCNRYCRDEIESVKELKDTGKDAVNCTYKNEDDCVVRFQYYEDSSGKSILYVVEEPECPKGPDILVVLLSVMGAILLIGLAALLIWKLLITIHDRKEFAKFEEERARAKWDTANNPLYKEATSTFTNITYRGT
T2 sequence (P08514 32-887 limits assumed): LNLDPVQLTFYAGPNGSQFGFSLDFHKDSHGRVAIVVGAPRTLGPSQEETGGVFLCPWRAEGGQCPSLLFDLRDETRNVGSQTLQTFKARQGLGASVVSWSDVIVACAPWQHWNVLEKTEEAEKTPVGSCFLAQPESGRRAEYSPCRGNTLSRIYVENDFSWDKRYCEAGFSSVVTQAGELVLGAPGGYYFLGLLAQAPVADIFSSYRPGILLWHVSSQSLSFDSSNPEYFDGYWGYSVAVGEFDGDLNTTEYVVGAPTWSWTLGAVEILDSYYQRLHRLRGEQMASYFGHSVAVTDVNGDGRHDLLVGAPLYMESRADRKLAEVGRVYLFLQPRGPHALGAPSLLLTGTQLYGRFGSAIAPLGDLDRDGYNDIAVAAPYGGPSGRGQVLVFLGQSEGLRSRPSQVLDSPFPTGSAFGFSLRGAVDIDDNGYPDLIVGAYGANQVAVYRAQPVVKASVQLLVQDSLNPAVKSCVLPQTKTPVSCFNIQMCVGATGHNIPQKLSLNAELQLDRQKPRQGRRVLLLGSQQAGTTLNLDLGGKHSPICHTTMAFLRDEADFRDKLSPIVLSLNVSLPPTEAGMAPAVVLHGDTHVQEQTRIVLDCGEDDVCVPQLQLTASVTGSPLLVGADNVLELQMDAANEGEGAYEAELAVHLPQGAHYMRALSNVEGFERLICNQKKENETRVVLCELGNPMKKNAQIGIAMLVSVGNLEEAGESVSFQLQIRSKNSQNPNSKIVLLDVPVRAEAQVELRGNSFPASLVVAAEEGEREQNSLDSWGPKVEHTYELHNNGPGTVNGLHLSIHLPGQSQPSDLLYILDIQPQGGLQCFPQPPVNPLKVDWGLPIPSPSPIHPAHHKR
T2 sequence (P08514 891-1039 partner limits assumed): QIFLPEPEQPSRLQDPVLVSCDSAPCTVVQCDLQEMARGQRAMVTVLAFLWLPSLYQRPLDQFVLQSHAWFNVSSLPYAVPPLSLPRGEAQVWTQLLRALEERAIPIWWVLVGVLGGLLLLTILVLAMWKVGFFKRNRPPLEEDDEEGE
T2 sequence (P05106 27-788): as the sequence (P05106 27-788) above

In general, IC50 refers to the point on the concentration scale where inhibition reaches its midpoint. For `Cc1ccc([N+](=O)[O-])cc1S(=O)(=O)N[C@@H](Cc1ccc(OCCCONC(=N)N)cc1)C(=O)O` [Example 11, (2S)-3-{4-[3-(Amidinoaminooxy)propoxy]phenyl)}-2-{[(2-methyl-5-nitrophenyl)sulfonyl]amino}propanoic acid trifluoroacetic acid salt], the 50% inhibitory concentration (IC50) on human αvβ3 (setting [1]) was 2 nM. `N=C(N)NOCCCOc1ccc(C[C@H](NS(=O)(=O)c2c(Cl)cccc2Cl)C(=O)O)cc1` [Example 46, (2S)-3-{4-[3-(Amidinoaminooxy)propoxy]phenyl}-2-{[(2,6-dichlorophenyl)sulfonyl]amino}propanoic acid trifluoroacetic acid salt]: the IC50 on human αvβ3 (setting [1]) stood at 2 nM. Take `Cc1nn(C)c(Cl)c1S(=O)(=O)N[C@@H](Cc1ccc(OCCCONC(=N)N)cc1)C(=O)O` [Example 77, (2S)-3-{4-[3-(Amidinoaminooxy)propoxy]phenyl}-2-{[(5-chloro-1,3-dimethylpyrazol-4-yl)sulfonyl]amino}propanoic acid trifluoroacetic acid salt]: the 50% inhibitory concentration (IC50) at human αvβ3 (setting [1]) is 6 nM. Same read-out and setting: next, `CC1(C)C2CCC1(CS(=O)(=O)N[C@@H](Cc1ccc(OCCCONC(=N)N)cc1)C(=O)O)C(=O)C2` (stereo partly drawn) [Example 86, (2S)-2-{[(1S)-10-Camphorsulfonyl]amino}-3-{4-[3-(amidinoaminooxy)propoxy]phenyl}propanoic acid trifluoroacetic acid salt]: 1 nM.

For the molecule `CCCCS(=O)(=O)N[C@@H](Cc1ccc(OCCCONC(=N)N)cc1)C(=O)O` [Example 1, (2S)-3-{4-[3-(amidinoaminooxy)propoxy]phenyl}-2-[(butylsulfonyl)amino]propanoic acid trifluoroacetic acid], the IC50 on human αvβ3 (mean of three replicate determinations, FIG. 2, read-out: IC50, inhibition of the αvβ3-vitronectin interaction) came to 28 nM; against human GPIIbIIIa it was 780 nM.
